Results from publication PMC7288168, “Synthesis and Cytotoxic Activity of Chiral Sulfonamides Based on the 2-Azabicycloalkane Skeleton” (Molecules, 2020).
“Also recorded” adds a separate entry of the source.

Assays:
human colon cancer HT-29 = test system: human colon cancer HT-29; parameters: method as in doi:10.1016/j.tetasy.2016.06.009; details: colon cancer line; cited from earlier work
[1] = Solubility in DMSO for in vitro tests; type: physicochemical; details: DMSO used for the in vitro tests
Procedure: All tested compounds were dissolved in dimethyl sulfoxide (DMSO). […] To assess the anticancer activity of compounds, we tested human hepatocellular carcinoma (HCC), medulloblastoma (MB), and glioblastoma (GBM) cell lines. Further, to compare the effects of selected compounds on nonmalignant primary cells, we used primary human umbilical vein endothelial cells (HUVEC).
We planned to use compounds 8 and 9 as references in the current study. […] In our further studies, we plan to compare activities of all compounds using ethanol as the solvent.

AKH12 cells = assay: Neutral red cell viability assay, AKH12; type: cell-based, human; details: for reduction of cell viability, AKH12: 50 µM, 24 h, first screening; for IC50: Homo sapiens, 24 h treatment, neutral red, read-out: LD50 AKH12 (HCC)
Procedure: (§1) The human hepatocellular carcinoma (HCC) cell line HUH7 was purchased from ATCC (LGC standards GmbH, Wesel, Germany). The Austrian human HCC cell line AKH12 has been well characterized and was kindly provided by Prof. Bettina Grasl-Kraupp. HUH7 cells were cultured in Dulbecco’s modified Eagle’s medium (Thermo Fisher Scientific, Waltham, MA, USA) containing 10% heat-inactivated fetal bovine serum (FBS) (Sigma-Aldrich, St. Louis, MO, USA), 1% penicillin-streptomycin (10,000 U/mL) (Thermo Fisher Scientific, Waltham, MA, USA), and 1% minimum essential medium nonessential amino acids (100x) (Thermo Fisher Scientific, Waltham, MA, USA). AKH12 cells were cultured in RPMI1640 medium (Sigma-Aldrich, St. Louis, MO, USA) containing 10% heat-inactivated FBS. DAOY and D283Med (short D283) medulloblastoma (MB) cells were purchased from ATCC (LGC standards GmbH, Wesel, Germany). D425Med (short D425) and UW228-2 were provided by Thomas Ströbel from the Institute of Neurology Medical University of Vienna. The cells were cultured in Dulbecco’s modified Eagle’s medium (Sigma-Aldrich, St. Louis, MO, USA) containing 10% FBS (Sigma-Aldrich, St. Louis, MO, USA), 2% L-Glutamine (Sigma-Aldrich, St. Louis, MO, USA), and 0.2% Normocin (Sigma-Aldrich, St. Louis, MO, USA). U-251 MG (short U251) glioblastoma (GBM) cell line was purchased from Sigma-Aldrich and cultured in Dulbecco’s modified Eagle’s medium (Sigma-Aldrich, St. Louis, MO, USA) containing 10% FBS (Sigma-Aldrich, St. Louis, MO, USA), 2% L-Glutamine (Sigma-Aldrich, St. Louis, MO, USA), and 0.2% Normocin (Sigma-Aldrich, St. Louis, Missouri, USA). Human umbilical vein endothelial cells (HUVECs) were provided by Brigitte Winter from the Department of Surgery Medical University of Vienna and were grown in endothelial cell growth medium-2 BulletKitTM (Lonza, Basel, Switzerland) under standard tissue culture conditions. All cells were incubated at 37 °C in a 5% CO2 atmosphere and regularly checked for mycoplasma contamination.
(§2) Cell viability was determined using a neutral red assay, as previously described. The cells were placed in 24-well plates and grown to reach 70–80% confluency prior to treatment. After treatment for 24 h, cells were incubated with neutral red at a concentration of 50 µg/mL in serum-free medium for 2 h at 37 °C. Cells were then washed 2x and incubated with 1% acetic acid in 70% ethanol. The dye concentration was measured photometrically at 562 nm. The percentage of survival was calculated considering DMSO-treated (indicated as 0 µM concentration) cells as 100% control.
(§3) LD50 was defined as the amount of a toxic agent required to eliminate 50% of the cell population. The LD50 was calculated in each experiment from the respective dose–response curve. All experiments were performed in triplicate wells.

HUH7 cells = assay: Neutral red cell viability assay, HUH7; type: cell-based, human; details: Homo sapiens, Huh-7; 24 h treatment, neutral red; read-out: LD50 HUH7 (HCC)
Procedure: as §1, §2, §3

D283 cells = assay: Neutral red cell viability assay, D283; type: cell-based, human; details: for reduction of cell viability, D283: 50 µM, 24 h, first screening; for IC50: Homo sapiens, D283, 24 h treatment, read-out: LD50 D283 (MB)
Procedure: as §1, §2, §3

UW228-2 cells = assay: Neutral red cell viability assay, UW228-2; type: cell-based, human; details: for reduction of cell viability, UW228-2: 50 µM, 24 h, first screening; for IC50: Homo sapiens, UW228-2, 24 h treatment, neutral red, read-out: LD50 UW228-2 (MB)
Procedure: as §1, §2, §3

D425 cells = assay: Cell viability assay (suspension cell line), MTT/CellTiter Blue, D425; type: cell-based, human; details: for reduction of cell viability, D425: 50 µM, 24 h, first screening; for IC50: Homo sapiens, read-out: LD50 D425 (MB); for HUVEC/D425 LD50 Fold Change: ratio of LD50 HUVEC to LD50 D425
Procedure: as §1, §3
(§4) One day before treatment, 2 × 10^4 of D425Med or HUVEC cells were seeded into 24-well plates and incubated at 37 °C in a humidified atmosphere containing 5% CO2.The cells were treated with different compounds for 24 h. A […] assay using the CellTiter Blue reagent (Promega, Fitchburg, Wisconsin, USA) was performed according to the manufacturer’s protocol. Experiments were performed in triplicate and repeated three times. The percentage of survival was calculated as the ratio using DMSO-treated (indicated as 0 µM concentration) cells as 100% control.

HUVEC cells [2] = assay: Cell viability assay MTT/CellTiter Blue, HUVEC (Table 2); type: cell-based; details: Table 2, nonmalignant primary cells, 24 h, assay as for D425
Procedure: as §1, §3, §4

U251 cells = assay: Neutral red cell viability assay, U251; type: cell-based, human; details: for decrease of cell viability, U251: 50 µM, 24 h, first screening; for IC50: Homo sapiens, U-251, 24 h treatment, neutral red, read-out: LD50 U251 (GBM)
Procedure: as §1, §2, §3

DAOY cells = assay: Neutral red cell viability assay, DAOY; type: cell-based, human; details: for reduction of cell viability, DAOY: 50 µM, 24 h, first screening; for IC50: Homo sapiens, Daoy, 24 h treatment, neutral red, read-out: LD50 DAOY (MB)
Procedure: as §1, §2, §3

HUVEC cells [3] = assay: Neutral red cell viability assay, HUVEC (Table 1); type: cell-based; details: Table 1, nonmalignant primary cells, 24 h
Procedure: as §1, §2, §3

[4] = 24 h treatment, suspension cell assay

| Compound | solubility in DMSO [1] | reduction of cell viability, AKH12 (AKH12 cells) | IC50 (AKH12 cells) [µM] | IC50 (HUH7 cells) [µM] | reduction of cell viability, D283 (D283 cells) | IC50 (D283 cells) [µM] | reduction of cell viability, UW228-2 (UW228-2 cells) | IC50 (UW228-2 cells) [µM] | reduction of cell viability, D425 (D425 cells) | IC50 (D425 cells; [4]) [µM] | HUVEC/D425 LD50 Fold Change (D425 cells) | LD50 HUVEC (HUVEC cells [2]) [µM] | decrease of cell viability, U251 (U251 cells) | IC50 (U251 cells) [µM] | reduction of cell viability, DAOY (DAOY cells) | IC50 (DAOY cells) [µM] | LD50 HUVEC (HUVEC cells [3]) [µM] | further results |
| --- | --- | --- | --- | --- | --- | --- | --- | --- | --- | --- | --- | --- | --- | --- | --- | --- | --- | --- |
| N.N.[Cl][Pt][Cl] [cisplatin] |  |  |  |  |  |  |  |  |  |  |  |  |  |  |  |  |  | IC50 (human colon cancer HT-29): 9.7 ± 2 µM |
| CC(c1ccccc1)N1C2CCC(C2)C1CNCC1C2CCC(C2)N1C(C)c1ccccc1 (stereo not drawn) [Compound 9] | not sufficient; also recorded: insufficiently soluble |  |  |  |  |  |  |  |  |  |  |  |  |  |  |  |  |  |
| Cc1ccc(-c2ccc(S(=O)(=O)N(CCN(CC3C4CCC(C4)N3C(C)c3ccccc3)S(=O)(=O)c3ccc(-c4ccc(C)cc4)cc3)CC3C4CCC(C4)N3C(C)c3ccccc3)cc2)cc1 [Compound 12b, Bis-4’-methyl-N,N-{[(1S,3R,4R)-2-((S)-1-phenylethyl)-2-azabicyclo[2.2.1]heptan-3-yl]methyl}-[1,1'-biphenyl]ethyl-4-sulfonamide] | not sufficient |  |  |  |  |  |  |  |  |  |  |  |  |  |  |  |  | melting point: 120 to 125 °C |
| CC(=O)Nc1ccc(S(=O)(=O)N(CCN(CC2C3CCC(C3)N2C(C)c2ccccc2)S(=O)(=O)c2ccc(NC(C)=O)cc2)CC2C3CCC(C3)N2C(C)c2ccccc2)cc1 [Compound 12i, Bis-N,N-(4-(N-(((1S,3R,4R)-2-((S)-1-phenylethyl)-2-azabicyclo[2.2.1]heptan-3-yl)methyl)sulfamoyl)ethyl)phenyl)acetamide] |  | reduced cell viability below LD50 | 5.75 ± 0.47 | 7.75 ± 0.84 | reduced cell viability | 21.8 ± 1.9 | reduced cell viability | 28.4 ± 2.11 | reduced cell viability | 15.6 ± 0.93 | 0.57 | 8.91 ± 2.11 | more than 50% | 15.3 ± 1.59 | reduced cell viability | 12.9 ± 1.59 | 3.16 ± 0.15 |  |
| CC(c1ccccc1)N1CC(NS(=O)(=O)c2ccc(-c3ccccc3)cc2)C2CCC1C2 [Compound 11a, 4-Phenyl-N-((2-((S)-1-phenylethyl)-(1S,4S,5R)-2-azabicyclo[3.2.1]octan-4-yl)benzenesulfonamide] |  | reduced cell viability below LD50 | 28.8 ± 1.53 | 22.5 ± 1.21 | reduced cell viability | 20 ± 2.02 | reduced cell viability | 16 ± 1.03 | reduced cell viability | 21.4 ± 0.89 | 1.01 | 21.71 ± 1.99 | more than 50% | 18.8 ± 2.11 | reduced cell viability | 18.7 ± 1.88 | 13.35 ± 0.25 |  |
| CC(c1ccccc1)N1C2CCC(C2)C1CNS(=O)(=O)c1ccc(C(F)(F)F)cc1 [Compound 10f, 4-Trifluoromethyl-N-((2-((S)-1-phenylethyl)-(1S,3R,4R)-2-azabicyclo[2.2.1]heptane-3-yl)benzenesulfonamide] |  | reduced cell viability below LD50 | 24.7 ± 1.98 | 24.6 ± 1.54 | reduced cell viability | 18.8 ± 1.22 | reduced cell viability | 28 ± 2.09 | reduced cell viability | 20.2 ± 0.79 | 1.14 | 23.15 ± 2.21 | more than 50% | 32.7 ± 1.32 | reduced cell viability | 15.8 ± 1.09 | 17.26 ± 2.33 |  |
| CC(c1ccccc1)N1C2CCC(C2)C1CN(CCN(CC1C2CCC(C2)N1C(C)c1ccccc1)S(=O)(=O)c1ccc(-c2ccc(Cl)cc2)cc1)S(=O)(=O)c1ccc(-c2ccc(Cl)cc2)cc1 [Compound 12d, Bis-4’-chloro-N,N-{[(1S,3R,4R)-2-((S)-1-phenylethyl)-2-azabicyclo[2.2.1]heptan-3-yl]methyl}-[1,1'-biphenyl]ethyl-4-sulfonamide] | not sufficient |  |  |  |  |  |  |  |  |  |  |  |  |  |  |  |  | melting point: 252 to 255 °C |
| CC(c1ccccc1)N1C2CCC(C2)C1CNCCNCC1C2CCC(C2)N1C(C)c1ccccc1 (stereo not drawn) [Compound 8] | not sufficient; also recorded: insufficiently soluble |  |  |  |  |  |  |  |  |  |  |  |  |  |  |  |  | IC50 (human colon cancer HT-29): 7.2 ± 0.8 µM |
| CC(c1ccccc1)N1C2CCC(C2)C1CNS(=O)(=O)c1ccc(-c2ccccc2)cc1 (stereo not drawn) [Compound 10a] |  | reduced cell viability below LD50 | 15.5 ± 1.3 | 13.9 ± 1.02 | reduced cell viability | 17.7 ± 1.09 | reduced cell viability | 28.8 ± 2.1 | reduced cell viability | 16.7 ± 2.11 | 1.67 | 28 ± 1.86 | more than 50% | 13.5 ± 0.9 | reduced cell viability | 16 ± 1.12 | 11.58 ± 1.11 |  |
| CC(c1ccccc1)N1C2CCC(C2)C1CNS(=O)(=O)c1cc(C(F)(F)F)cc(C(F)(F)F)c1 [Compound 10g, 3,5-Bis(trifluoromethyl)-N-((2-((S)-1-phenylethyl)-(1S,3R,4R)-2-azabicyclo[2.2.1]heptane-3-yl)benzenesulfonamide] |  | reduced cell viability below LD50 | 10.2 ± 1.09 | 11.7 ± 1.53 | reduced cell viability | 16 ± 1 | reduced cell viability | 12 ± 0.99 | reduced cell viability | 6.61 | 2.66 | 17.62 ± 2.98 | more than 50% | 11.8 ± 1.58 | reduced cell viability | 19.2 ± 1.42 | 10.77 ± 0.93 | LD50 D425 (MB) (D425 cells; [4]): 6.61 ± 1.52 µM; D425 cell viability as compared to HUVEC cells (D425 cells; dose-response 24 h, Student's t-test, p ≤0.05 / p ≤0.01): significantly reduced D425 cell viability as compared to HUVEC cells |
